Data: US20240408096A1, “DOSING REGIMENS FOR ORAL ALK2 KINASE INHIBITORS” (BioCryst Pharmaceuticals, Inc., priority 2020, published 2024)
Entries after “also recorded” stand apart in the source; their conditions may differ.

Tests used:
[1] = Phase 1 Part 1 (SAD) urinary PK; assay type: in vivo, human; details: for CLR,0-6 / CLR,6-12 / CLR,12-24 / Cum % excreted0-72 / CumAe0-72 / CLR,24-48: Part 1 SAD, geometric mean (CV%); for CumAe0-72: urine 0 to 72 hours
Method: (§1) Four sequential SAD cohorts were dosed.
Urine samples were collected according to the schedule in Tables 4 and 5 for Parts 1 and 2, respectively. The pre-dose sample on Day 1 was collected any time in the 2 hours prior to dosing. A 30-minute window was allowed around collection intervals.

[2] = Phase 1 Part 1 (SAD) plasma PK incl. food effect; assay type: in vivo, human; details: for AUC0-24, geometric least-squares mean / AUC0-inf, geometric least-squares mean / AUC0-last, geometric least-squares mean / Cmax, geometric least-squares mean: 15 mg single dose; for AUC0-24 / AUC0-inf / AUC0-last / Cmax / Tmax / t1/2: Part 1 SAD; for AUC0-24 / AUC0-inf / AUC0-last / Cmax: geometric mean (CV%); for Tmax / t1/2: median
Method: as §1
Escalation to the next higher dose level in Part 1 occurred only after satisfactory review of clinical safety and pharmacokinetic data. […] Subjects received the same study drug and dose (Compound A or placebo) in both dosing periods.
For each cohort of Part 1, the daily dose of study drug was administered as a single dose (1 time daily or QD). In Part 1 of the study, following a screening period to determine eligibility, subjects in each cohort entered the Phase 1 clinical research unit (CRU) on the afternoon of Day −1. Study eligibility was re-confirmed upon admission to the CRU, and subjects remained in the CRU overnight prior to dosing on Day 1. Following Day 1, subjects remained in the CRU for an additional 72 hours post-dose (i.e., discharge on Day 4) to enable collection of plasma and urine for PK samples and other study assessments. Subjects were discharged from the CRU following plasma PK sample collection on Day 4 and returned on Day 16 (+2 days) for a final follow-up visit.
Serial venous blood samples were withdrawn via an indwelling cannula or by venipuncture according to the schedule in Tables 4 and 5 for Parts 1 and 2, respectively. Samples were collected into 4 mL lithium heparin tubes. The acceptable deviations from the nominal blood sampling times in Part 1 and Part 2 are as follows: the pre-dose blood sample will be taken ≤1 hour before dosing; 0 to 1 hour post-dose samples will be taken within +2 minutes of the nominal post-dose sampling time; >1 to 12 hours post-dose samples will be taken within +10 minutes of the nominal post-dose sampling time; and >12 hours post-dose samples will be taken within +30 minutes of the nominal post-dose sampling time if subjects are resident in the clinic. […]
In all derivations of PK parameters, 0 will be substituted for concentrations below the quantification limit (BQL) of the assay. Samples that are BQL but are between 2 samples with detectable concentrations will be excluded from PK analysis.
Dose proportionality was evaluated over all fasted doses within a study part based upon AUC0-inf (Part 1), AUCtau (Part 2), AUC0-t, and Cmax using the power model. The analysis was performed for Day 1 (Parts 1 and 2) and Day 7 (Part 2).
Dose proportionality for PK parameters was assessed by restricted maximum likelihood using SAS PROC MIXED (SAS STAT software, Cary N.C.). The mean slope was estimated from the power model and the corresponding 90% confidence interval (CI) calculated. Dose proportionality was also examined using an analysis of variance (ANOVA) method, where PK parameters for each dose were compared with a reference dose on a pair-wise basis. The ratio of geometric least squares (GLS) means and the corresponding 90% CI was estimated for each PK parameter of interest.
Mixed-effects models were constructed with treatment fitted as a fixed effect and subject fitted as a random effect to provide point estimates for the ratios of PK parameters under fed relative to fasted conditions and their associated 90% CI.

CYP3A4 = CYP3A4 (Homo sapiens, UniProt P08684); experiment: CYP inhibition in vitro; assay type: in vitro ADME
CYP2C8 = biological target: T1, CYP2C8 (Homo sapiens, UniProt P10632); experiment: CYP inhibition in vitro; assay type: in vitro ADME
T1 sequence (P10632 1-490): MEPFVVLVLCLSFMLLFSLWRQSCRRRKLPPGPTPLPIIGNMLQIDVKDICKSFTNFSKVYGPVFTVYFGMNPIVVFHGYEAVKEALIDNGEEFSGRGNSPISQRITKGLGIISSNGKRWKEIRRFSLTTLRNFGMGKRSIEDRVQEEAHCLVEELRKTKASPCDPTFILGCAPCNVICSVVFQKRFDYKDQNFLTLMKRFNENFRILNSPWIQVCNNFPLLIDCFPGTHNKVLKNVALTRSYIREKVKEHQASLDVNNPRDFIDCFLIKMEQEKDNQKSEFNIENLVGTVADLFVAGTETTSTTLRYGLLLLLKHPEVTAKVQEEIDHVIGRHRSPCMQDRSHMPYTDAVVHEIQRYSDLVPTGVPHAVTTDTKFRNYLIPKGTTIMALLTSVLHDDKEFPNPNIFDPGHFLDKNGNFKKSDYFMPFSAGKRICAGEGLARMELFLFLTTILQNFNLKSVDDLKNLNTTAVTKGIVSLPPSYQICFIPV

[3] = Part 1 cohort 4, 15 mg single dose

Sequence of CYP3A4 (P08684 whole entry): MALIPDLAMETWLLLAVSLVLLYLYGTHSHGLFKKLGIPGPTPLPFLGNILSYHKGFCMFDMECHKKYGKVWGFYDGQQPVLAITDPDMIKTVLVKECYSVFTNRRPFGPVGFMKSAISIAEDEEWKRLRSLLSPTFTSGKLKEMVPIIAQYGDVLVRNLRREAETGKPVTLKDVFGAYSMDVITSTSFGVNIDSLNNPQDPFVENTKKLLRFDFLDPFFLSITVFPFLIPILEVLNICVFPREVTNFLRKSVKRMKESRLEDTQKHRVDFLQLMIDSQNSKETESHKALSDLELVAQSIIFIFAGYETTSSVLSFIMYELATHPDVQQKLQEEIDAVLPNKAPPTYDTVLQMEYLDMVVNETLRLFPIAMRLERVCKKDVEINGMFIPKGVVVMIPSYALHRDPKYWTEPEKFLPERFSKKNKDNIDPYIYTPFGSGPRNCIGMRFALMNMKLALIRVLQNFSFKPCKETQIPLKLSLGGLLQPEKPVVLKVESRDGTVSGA

Q: What does the source list for `COc1cc(-n2cnc(Nc3nc(N4CCC[C@H]4C(N)=O)nc4sccc34)c2)cc(OC)c1OC.O=C(O)CC(O)(CC(=O)O)C(=O)O` [Compound A]?
A: cumulative amount of parent compound excreted in the urine ([1]; Part 1, single doses 5 to 25 mg, all cohorts): less than 0.3 % of the administered dose; CLR,0-6 ([1]; 5 mg): 23.63 (28.3) mL/h; CLR,6-12 ([1]; 5 mg): 14.61 (92.8) mL/h; CLR,12-24 ([1]; 5 mg): 8.576 (263,3) mL/h; Cum % excreted0-72 ([1]; 5 mg): 0.2668 (43.6) %; CumAe0-72 ([1]; 5 mg): 13,340 (43.6) ng; CLR,0-6 ([1]; 10 mg): 9.499 (79.6) mL/h; CLR,6-12 ([1]; 10 mg): 6.137 (93.2) mL/h; CLR,12-24 ([1]; 10 mg): 4.759 (56,5) mL/h; Cum % excreted0-72 ([1]; 10 mg): 0.1206 (84.0) %; CumAe0-72 ([1]; 10 mg): 12,060 (84.0) ng; CLR,0-6 ([1]; 15 mg fasted): 12.84 (56.2) mL/h; CLR,6-12 ([1]; 15 mg fasted): 6.793 (98.8) mL/h; CLR,12-24 ([1]; 15 mg fasted): 8.008 (114.1) mL/h; CLR,24-48 ([1]; 15 mg fasted): 7.674 (80.2) mL/h; Cum % excreted0-72 ([1]; 15 mg fasted): 0.1409 (79.5) %; CumAe0-72 ([1]; 15 mg fasted): 21,130 (79.5) ng; CLR,0-6 ([1]; 25 mg): 15.98 (99.4) mL/h; CLR,6-12 ([1]; 25 mg): 10.56 (138.2) mL/h; CLR,12-24 ([1]; 25 mg): 9.785 (145.0) mL/h; CLR,24-48 ([1]; 25 mg): 10.44 (87.9) mL/h; Cum % excreted0-72 ([1]; 25 mg): 0.1928 (87.0) %; CumAe0-72 ([1]; 25 mg): 48,210 (87.0) ng; AUC0-24, geometric least-squares mean ([2]; fasted): 1975,63 ng · h/mL; AUC0-inf, geometric least-squares mean ([2]; fasted): 2075.34 ng·h/mL; AUC0-last, geometric least-squares mean ([2]; fasted): 2019.55 ng·h/mL; Cmax, geometric least-squares mean ([2]; fasted): 272.80 ng/mL; AUC0-24, geometric least-squares mean ([2]; fed): 1742.05 ng·h/mL; AUC0-inf, geometric least-squares mean ([2]; fed): 2087.05 ng·h/mL; AUC0-last, geometric least-squares mean ([2]; fed): 2015.24 ng·h/mL; Cmax, geometric least-squares mean ([2]; fed): 199.50 ng/mL; detectability in plasma ([2]; Part 1, all cohorts except cohort 1 (5 mg dose)): remained detectable over the entire 72-hour data collection period; median time to maximum concentration (Tmax) ([2]; Part 1, all fasted cohorts): approximately 2 hours; dose proportionality of plasma exposure ([2]; Part 1, single oral doses 5 to 25 mg, healthy subjects): exhibits dose proportionality; also recorded: approximately linear and dose proportional; AUC0-24 ([2]; 5 mg single oral dose, fasted): 686.9 (30.7) ng · h/mL; AUC0-inf ([2]; 5 mg single oral dose, fasted): 755.7 (29.9) ng · h/mL; AUC0-last ([2]; 5 mg single oral dose, fasted): 717.0 (31.3) ng · h/mL; Cmax ([2]; 5 mg single oral dose, fasted): 94.24 (45.2) ng/mL; Tmax ([2]; 5 mg single oral dose, fasted): 2.011 h; t1/2 ([2]; 5 mg single oral dose, fasted): 6.833 h; AUC0-24 ([2]; 10 mg single oral dose, fasted): 1545 (18.9) ng · h/mL; AUC0-inf ([2]; 10 mg single oral dose, fasted): 1662 (17.3) ng · h/mL; AUC0-last ([2]; 10 mg single oral dose, fasted): 1579 (18.8) ng · h/mL; Cmax ([2]; 10 mg single oral dose, fasted): 234.3 (26.1) ng/mL; Tmax ([2]; 10 mg single oral dose, fasted): 2.013 h; t1/2 ([2]; 10 mg single oral dose, fasted): 5.753 h; AUC0-24 ([2]; 15 mg single oral dose, fasted): 1976 (16.6) ng · h/mL; AUC0-inf ([2]; 15 mg single oral dose, fasted): 2214 (24.3) ng · h/mL; AUC0-last ([2]; 15 mg single oral dose, fasted): 2178 (24.8) ng · h/mL; Cmax ([2]; 15 mg single oral dose, fasted): 272.8 (42.5) ng/mL; Tmax ([2]; 15 mg single oral dose, fasted): 2.009 h; t1/2 ([2]; 15 mg single oral dose, fasted): 7.639 h; AUC0-24 ([2]; 15 mg single oral dose, fed): 1742 (17.6) ng · h/mL; AUC0-inf ([2]; 15 mg single oral dose, fed): 1978 (21.4) ng · h/mL; AUC0-last ([2]; 15 mg single oral dose, fed): 1898 (24.3) ng · h/mL; Cmax ([2]; 15 mg single oral dose, fed): 199.5 (41.2) ng/mL; Tmax ([2]; 15 mg single oral dose, fed): 4.023 h; t1/2 ([2]; 15 mg single oral dose, fed): 6.688 h; AUC0-24 ([2]; 25 mg single oral dose, fasted): 3188 (14.2) ng · h/mL; AUC0-inf ([2]; 25 mg single oral dose, fasted): 3517 (17.0) ng · h/mL; AUC0-last ([2]; 25 mg single oral dose, fasted): 3475 (17.8) ng · h/mL; Cmax ([2]; 25 mg single oral dose, fasted): 474.1 (37.1) ng/mL; Tmax ([2]; 25 mg single oral dose, fasted): 2.071 h; t1/2 ([2]; 25 mg single oral dose, fasted): 7.502 h; GLSM AUC0-last and GLSM AUC0-inf fasted vs. fed [2, 3]: approximately equivalent; Tmax, median of paired differences (95% CI) fed vs. fasted [2, 3]: 2.00 (0.99, 10.00); decrease of GLSM AUC0-24 after high-fat meal vs fasted [2, 3]: 12%; decrease of GLSM Cmax after high-fat meal vs fasted [2, 3]: 27%; dose proportionality of single dose Cmax ([2]; Part 1 single ascending oral dose cohorts (FIG. 2)): approximately linear and dose-proportional; dose proportionality of single dose AUC0-24 ([2]; Part 1 single ascending oral dose cohorts (FIG. 3)): approximately linear and dose-proportional; CYP3A4 inhibition (CYP3A4): is an inhibitor; CYP2C8 inhibition (CYP2C8): is an inhibitor
